Source: PMC7531004, “Discovery of gramicidin A analogues with altered activities by multidimensional screening of a one-bead-one-compound library” (Nature Communications, 2020)
Where a SMILES comes first, the peptide text is derived from it. [ ]: non-standard residue; d: D form. The star is where a group is joined. NHCH2CH2OH = OCCN*; For = O=C*

Tests used:
[1] = system: P388 mouse leukemia cells; conditions: 92 h
Outline: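 Peptide stocks diluted 250× in growth medium; P388 cells 1 × 10^4 cells/mL final; 37 °C, 5% CO2, 92 h. WST-1 + 1-methoxy PMS, 4 h, A415. Output: % viability.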

[2] = H+/Na+ transport assay of bead-derived peptides (one-point); type: biochemical; parameters: key: relative activity; mean of two control wells = 1.00; conditions: bead-derived peptide solution, EYPC/EYPG LUVs;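 further: relative to parent gramicidin A activity set to 1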
Outline: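 Miniaturized 96-well format. LUVs with entrapped pyranine (1.0 mM) were exposed to peptide for 30 min at RT. Intensities were expressed relative to full lysis by Triton X-100 and no treatment, with control-well mean = 1.00.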

[3] = system: Streptococcus pyogenes SSI-9; test: Antibacterial activity assay of bead-derived peptides (three concentrations); type: cell-based; parameters: key: +++: inhibition by the 640-fold diluted peptide solution; ++: inhibition by the 160-fold diluted solution; +: inhibition by the 40-fold diluted solution; -: no inhibition; conditions: S. pyogenes, bead-derived peptide solution, three concentrations
Outline: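 Growth inhibition scored visually as precipitated bacteria after 37 °C, 18 h incubation. Streptococcus pyogenes SSI-9 inoculum of 2 × 10^5 CFU in Ca2+/Mg2+-adjusted Mueller Hinton broth plus 5% laked horse blood; peptides tested at three levels: stock, 4-fold and 16-fold DMSO dilutions.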

Row | Compound | cell viability/% [1] [%] | H+/Na+ transport activity normalized against the value of 1 (1.00) [2] | antibacterial activity [3]
1 | CC(C)C[C@@H](NC(=O)[C@H](Cc1c[nH]c2ccccc12)NC(=O)[C@@H](CC(C)C)NC(=O)[C@@H](NC(=O)[C@H](NC(=O)[C@H](C)NC(=O)[C@H](NC(=O)[C@H](C)NC(=O)CNC(=O)[C@@H](NC=O)C(C)C)C(C)C)C(C)C)C(C)C)C(=O)N[C@@H](Cc1c[nH]c2ccccc12)C(=O)N[C@@H](C(=O)N[C@@H](Cc1c[nH]c2ccccc12)C(=O)N[C@@H](C(=O)N[C@@H](Cc1c[nH]c2ccccc12)C(=O)NCCO)C(C)C)C(C)C [compound 8969] (For-VGA[dV]A[dV]V[dL]W[dL]W[dV]W[dV]W-NHCH2CH2OH) | 8.7 | 1.09 | -
2 | CNC(=O)C[C@@H](NC(=O)[C@@H](NC(=O)[C@H](NC(=O)[C@H](C)NC(=O)[C@H](NC(=O)[C@H](C)NC(=O)CNC(=O)[C@@H](NC=O)C(C)C)C(C)C)C(C)C)C(C)C)C(=O)N[C@@H](Cc1c[nH]c2ccccc12)C(=O)N[C@H](CC(C)C)C(=O)N[C@@H](Cc1c[nH]c2ccccc12)C(=O)N[C@H](CC(C)C)C(=O)N[C@@H](Cc1c[nH]c2ccccc12)C(=O)N[C@H](CC(C)C)C(=O)N[C@@H](Cc1c[nH]c2ccccc12)C(=O)NCCO [compound 8982] (For-VGA[dV]A[dV]V[dD](NHMe)W[dL]W[dL]W[dL]W-NHCH2CH2OH) | 49.1 | 1.21 | -
3 | CC(C)C[C@@H](NC(=O)[C@H](C)NC(=O)[C@H](NC(=O)[C@H](C)NC(=O)CNC(=O)[C@@H](NC=O)C(C)C)C(C)C)C(=O)N[C@H](C(=O)N[C@@H](C(=O)N[C@@H](Cc1c[nH]c2ccccc12)C(=O)N[C@H](CC(C)C)C(=O)N[C@@H](Cc1c[nH]c2ccccc12)C(=O)N[C@H](CC(C)C)C(=O)N[C@@H](Cc1c[nH]c2ccccc12)C(=O)N[C@@H](C(=O)N[C@@H](Cc1c[nH]c2ccccc12)C(=O)NCCO)C(C)C)[C@H](C)O)C(C)C [compound 8984] (For-VGA[dV]A[dL]V[dT]W[dL]W[dL]W[dV]W-NHCH2CH2OH) | 57.9 | 1.12 | -
4 | CNC(=O)C[C@@H](NC(=O)[C@@H](NC(=O)[C@@H](CC(C)C)NC(=O)[C@H](C)NC(=O)[C@@H](CC(C)C)NC(=O)[C@H](C)NC(=O)CNC(=O)[C@@H](NC=O)C(C)C)C(C)C)C(=O)N[C@@H](Cc1c[nH]c2ccccc12)C(=O)N[C@H](CC(C)C)C(=O)N[C@@H](Cc1c[nH]c2ccccc12)C(=O)N[C@H](CC(C)C)C(=O)N[C@@H](Cc1c[nH]c2ccccc12)C(=O)N[C@@H](C(=O)N[C@@H](Cc1c[nH]c2ccccc12)C(=O)NCCO)[C@H](C)O [compound 8992] (For-VGA[dL]A[dL]V[dD](NHMe)W[dL]W[dL]W[dT]W-NHCH2CH2OH) | 56.1 | 1.07 | -
5 | CC(C)C[C@@H](NC(=O)[C@H](Cc1c[nH]c2ccccc12)NC(=O)[C@@H](CC(C)C)NC(=O)[C@H](Cc1c[nH]c2ccccc12)NC(=O)[C@H](NC(=O)[C@H](Cc1c[nH]c2ccccc12)NC(=O)[C@@H](CC(C)C)NC(=O)[C@@H](NC(=O)[C@H](NC(=O)[C@H](C)NC(=O)[C@H](NC(=O)[C@H](C)NC(=O)CNC(=O)[C@@H](NC=O)C(C)C)C(C)C)C(C)C)C(C)C)C(C)C)C(=O)N[C@@H](Cc1c[nH]c2ccccc12)C(=O)NCCO [compound 8999] (For-VGA[dV]A[dV]V[dL]W[dV]W[dL]W[dL]W-NHCH2CH2OH) | 96.1 | 1.03 | +
6 | CC(C)C[C@@H](NC(=O)[C@H](C)NC(=O)CNC(=O)[C@@H](NC=O)C(C)C)C(=O)N[C@@H](C)C(=O)N[C@@H](C(=O)N[C@H](C(=O)N[C@@H](C(=O)N[C@@H](Cc1c[nH]c2ccccc12)C(=O)N[C@H](CC(C)C)C(=O)N[C@@H](Cc1c[nH]c2ccccc12)C(=O)N[C@H](CC(C)C)C(=O)N[C@@H](Cc1c[nH]c2ccccc12)C(=O)N[C@H](CC(C)C)C(=O)N[C@@H](Cc1c[nH]c2ccccc12)C(=O)NCCO)C(C)C)C(C)C)C(C)C [compound 9000] (For-VGA[dL]A[dV]V[dV]W[dL]W[dL]W[dL]W-NHCH2CH2OH) | 7.4 | 1.21 | +
7 | CC(C)C[C@@H](NC(=O)[C@H](C)NC(=O)CNC(=O)[C@@H](NC=O)C(C)C)C(=O)N[C@@H](C)C(=O)N[C@@H](C(=O)N[C@H](C(=O)N[C@@H](C(=O)N[C@@H](Cc1c[nH]c2ccccc12)C(=O)N[C@@H](C(=O)N[C@@H](Cc1c[nH]c2ccccc12)C(=O)N[C@H](CC(C)C)C(=O)N[C@@H](Cc1c[nH]c2ccccc12)C(=O)N[C@@H](C(=O)N[C@@H](Cc1c[nH]c2ccccc12)C(=O)NCCO)C(C)C)C(C)C)C(C)C)C(C)C)[C@H](C)O [compound 9030] (For-VGA[dL]A[dT]V[dV]W[dV]W[dL]W[dV]W-NHCH2CH2OH) | 71.3 | 1.12 | -
8 | CC(C)C[C@@H](NC(=O)[C@H](C)NC(=O)CNC(=O)[C@@H](NC=O)C(C)C)C(=O)N[C@@H](C)C(=O)N[C@@H](C(=O)N[C@H](C(=O)N[C@@H](C(=O)N[C@@H](Cc1c[nH]c2ccccc12)C(=O)N[C@@H](C(=O)N[C@@H](Cc1c[nH]c2ccccc12)C(=O)N[C@H](CC(C)C)C(=O)N[C@@H](Cc1c[nH]c2ccccc12)C(=O)N[C@@H](C(=O)N[C@@H](Cc1c[nH]c2ccccc12)C(=O)NCCO)C(C)C)C(C)C)C(C)C)C(C)C)C(C)C [compound 9036] (For-VGA[dL]A[dV]V[dV]W[dV]W[dL]W[dV]W-NHCH2CH2OH) | 94.7 | 1.18 | +
9 | CC(C)C[C@@H](NC(=O)[C@H](Cc1c[nH]c2ccccc12)NC(=O)[C@H](NC(=O)[C@H](Cc1c[nH]c2ccccc12)NC(=O)[C@H](NC(=O)[C@H](Cc1c[nH]c2ccccc12)NC(=O)[C@H](NC(=O)[C@@H](NC(=O)[C@H](NC(=O)[C@H](C)NC(=O)[C@H](NC(=O)[C@H](C)NC(=O)CNC(=O)[C@@H](NC=O)C(C)C)C(C)C)[C@H](C)O)C(C)C)C(C)C)C(C)C)C(C)C)C(=O)N[C@@H](Cc1c[nH]c2ccccc12)C(=O)NCCO [compound 9058] (For-VGA[dV]A[dT]V[dV]W[dV]W[dV]W[dL]W-NHCH2CH2OH) | 58.0 | 1.14 | -
10 | CC(C)C[C@@H](NC(=O)[C@H](Cc1c[nH]c2ccccc12)NC(=O)[C@H](NC(=O)[C@H](Cc1c[nH]c2ccccc12)NC(=O)[C@H](NC(=O)[C@H](Cc1c[nH]c2ccccc12)NC(=O)[C@@H](CC(C)C)NC(=O)[C@@H](NC(=O)[C@H](NC(=O)[C@H](C)NC(=O)[C@H](NC(=O)[C@H](C)NC(=O)CNC(=O)[C@@H](NC=O)C(C)C)[C@H](C)O)C(C)C)C(C)C)C(C)C)C(C)C)C(=O)N[C@@H](Cc1c[nH]c2ccccc12)C(=O)NCCO [compound 9075] (For-VGA[dT]A[dV]V[dL]W[dV]W[dV]W[dL]W-NHCH2CH2OH) | 58.6 | 1.01 | -
